Assay results taken from publication PMC9481151, “Discovery of new symmetrical and asymmetrical nitrile-containing 1,4-dihydropyridine derivatives as dual kinases and P-glycoprotein inhibitors: synthesis, in vitro assays, and in silico studies” (Journal of Enzyme Inhibition and Medicinal Chemistry, 2022).

Columns and labels:
CCRF-CEM = assay: NCI single dose (10 µM) SRB screen; type: cell-based, human; settings: leukaemia, 48 h
HL-60(TB) = assay: NCI single dose (10 µM) SRB screen; type: cell-based, human; settings: leukaemia, 48 h
K-562 = assay: NCI single dose (10 µM) SRB screen; type: cell-based, human; settings: leukaemia, 48 h
MOLT-4 = assay: NCI single dose (10 µM) SRB screen; type: cell-based, human; settings: leukaemia, 48 h
RPMI-8226 = assay: NCI single dose (10 µM) SRB screen; type: cell-based, human; settings: leukaemia, 48 h
SR = assay: NCI single dose (10 µM) SRB screen; type: cell-based, human; settings: leukaemia, 48 h
A549/ATCC = assay: NCI single dose (10 µM) SRB screen; type: cell-based, human; settings: non-small cell lung cancer, 48 h
EKVX = assay: NCI single dose (10 µM) SRB screen; type: cell-based, human; settings: non-small cell lung cancer, 48 h
HOP-62 = assay: NCI single dose (10 µM) SRB screen; type: cell-based, human; settings: non-small cell lung cancer, 48 h
HOP-92 = assay: NCI single dose (10 µM) SRB screen; type: cell-based, human; settings: non-small cell lung cancer, 48 h
NCI-H226 = assay: NCI single dose (10 µM) SRB screen; type: cell-based, human; settings: non-small cell lung cancer, 48 h
NCI-H23 = assay: NCI single dose (10 µM) SRB screen; type: cell-based, human; settings: non-small cell lung cancer, 48 h
NCI-H322M = assay: NCI single dose (10 µM) SRB screen; type: cell-based; settings: non-small cell lung cancer, 48 h
NCI-H460 = assay: NCI single dose (10 µM) SRB screen; type: cell-based, human; settings: non-small cell lung cancer, 48 h
NCI-H522 = assay: NCI single dose (10 µM) SRB screen; type: cell-based, human; settings: non-small cell lung cancer, 48 h
COLO 205 = assay: NCI single dose (10 µM) SRB screen; type: cell-based, human; settings: colon cancer, 48 h
HCC-2998 = assay: NCI single dose (10 µM) SRB screen; type: cell-based, human; settings: colon cancer, 48 h
HCT-116 = assay: NCI single dose (10 µM) SRB screen; type: cell-based, human; settings: colon cancer, 48 h
HCT-15 = assay: NCI single dose (10 µM) SRB screen; type: cell-based, human; settings: colon cancer, 48 h
HT29 = assay: NCI single dose (10 µM) SRB screen; type: cell-based, human; settings: colon cancer, 48 h
KM12 = assay: NCI single dose (10 µM) SRB screen; type: cell-based, human; settings: colon cancer, 48 h
SW-620 = assay: NCI single dose (10 µM) SRB screen; type: cell-based, human; settings: colon cancer, 48 h
SF-268 = assay: NCI single dose (10 µM) SRB screen; type: cell-based, human; settings: CNS cancer, 48 h
SF-295 = assay: NCI single dose (10 µM) SRB screen; type: cell-based, human; settings: CNS cancer, 48 h
SF-539 = assay: NCI single dose (10 µM) SRB screen; type: cell-based, human; settings: CNS cancer, 48 h
SNB-19 = assay: NCI single dose (10 µM) SRB screen; type: cell-based, human; settings: CNS cancer, 48 h
SNB-75 = assay: NCI single dose (10 µM) SRB screen; type: cell-based, human; settings: CNS cancer, 48 h
U251 = assay: NCI single dose (10 µM) SRB screen; type: cell-based, human; settings: CNS cancer, 48 h
LOX IMVI = assay: NCI single dose (10 µM) SRB screen; type: cell-based, human; settings: melanoma, 48 h
MALME-3M = assay: NCI single dose (10 µM) SRB screen; type: cell-based, human; settings: melanoma, 48 h
M14 = assay: NCI single dose (10 µM) SRB screen; type: cell-based, human; settings: melanoma, 48 h
MDA-MB-435 = assay: NCI single dose (10 µM) SRB screen; type: cell-based, human; settings: melanoma, 48 h
SK-MEL-2 = assay: NCI single dose (10 µM) SRB screen; type: cell-based, human; settings: melanoma, 48 h
SK-MEL-28 = assay: NCI single dose (10 µM) SRB screen; type: cell-based, human; settings: melanoma, 48 h
SK-MEL-5 = assay: NCI single dose (10 µM) SRB screen; type: cell-based, human; settings: melanoma, 48 h
UACC-257 = assay: NCI single dose (10 µM) SRB screen; type: cell-based, human; settings: melanoma, 48 h
UACC-62 = assay: NCI single dose (10 µM) SRB screen; type: cell-based, human; settings: melanoma, 48 h
IGROV1 = assay: NCI single dose (10 µM) SRB screen; type: cell-based, human; settings: ovarian cancer, 48 h
OVCAR-3 = assay: NCI single dose (10 µM) SRB screen; type: cell-based, human; settings: ovarian cancer, 48 h
OVCAR-4 = assay: NCI single dose (10 µM) SRB screen; type: cell-based, human; settings: ovarian cancer, 48 h
OVCAR-5 = assay: NCI single dose (10 µM) SRB screen; type: cell-based, human; settings: ovarian cancer, 48 h
OVCAR-8 = assay: NCI single dose (10 µM) SRB screen; type: cell-based, human; settings: ovarian cancer, 48 h
NCI/ADR-RES = assay: NCI single dose (10 µM) SRB screen; type: cell-based, human; settings: ovarian cancer, 48 h
SK-OV-3 = assay: NCI single dose (10 µM) SRB screen; type: cell-based, human; settings: ovarian cancer, 48 h
786-0 = assay: NCI single dose (10 µM) SRB screen; type: cell-based, human; settings: renal cancer, 48 h
A498 = assay: NCI single dose (10 µM) SRB screen; type: cell-based, human; settings: renal cancer, 48 h
ACHN = assay: NCI single dose (10 µM) SRB screen; type: cell-based, human; settings: renal cancer, 48 h
CAKI-1 = assay: NCI single dose (10 µM) SRB screen; type: cell-based, human; settings: renal cancer, 48 h
RXF 393 = assay: NCI single dose (10 µM) SRB screen; type: cell-based, human; settings: renal cancer, 48 h
SN12C = assay: NCI single dose (10 µM) SRB screen; type: cell-based, human; settings: renal cancer, 48 h
TK-10 = assay: NCI single dose (10 µM) SRB screen; type: cell-based, human; settings: renal cancer, 48 h
UO-31 = assay: NCI single dose (10 µM) SRB screen; type: cell-based, human; settings: renal cancer, 48 h
PC-3 = assay: NCI single dose (10 µM) SRB screen; type: cell-based, human; settings: prostate cancer, 48 h
DU-145 = assay: NCI single dose (10 µM) SRB screen; type: cell-based, human; settings: prostate cancer, 48 h
MCF7 = assay: NCI single dose (10 µM) SRB screen; type: cell-based, human; settings: breast cancer, 48 h
MDA-MB-231 = assay: NCI single dose (10 µM) SRB screen; type: cell-based, human; settings: breast cancer, 48 h
HS578T = assay: NCI single dose (10 µM) SRB screen; type: cell-based, human; settings: breast cancer, 48 h
BT-549 = assay: NCI single dose (10 µM) SRB screen; type: cell-based, human; settings: breast cancer, 48 h
T-47D = assay: NCI single dose (10 µM) SRB screen; type: cell-based, human; settings: breast cancer, 48 h
MDA-MB-468 = assay: NCI single dose (10 µM) SRB screen; type: cell-based, human; settings: breast cancer, 48 h
NCI 60 cancer cell lines = assay: NCI single dose (10 µM) SRB screen, mean over panel; type: cell-based, human; settings: mean over 60 cell lines, 48 h
Staphylococcus aureus = assay: Agar well diffusion method; settings: relative to ciprofloxacin
Bacillus subtilis = assay: Agar well diffusion method; settings: relative to ciprofloxacin
Escherichia coli = assay: Agar well diffusion method; settings: relative to ciprofloxacin
Pseudomonas aeruginosa = assay: Agar well diffusion method; settings: relative to ciprofloxacin
Candida albicans = assay: Agar well diffusion method; settings: relative to clotrimazole
Aspergillus flavus = assay: Agar well diffusion method; settings: relative to clotrimazole

CC1=C(C(=O)OCC(C)C)C(c2cccc(C#N)c2)C(C(=O)OCC(C)C)=C(C)N1 [Compound 1d, Diisobutyl 4-(3-cyanophenyl)-2,6-dimethyl-1,4-dihydropyridine-3,5-dicarboxylate]
GI% CCRF-CEM (CCRF-CEM): 32% | GI% HL-60(TB) (HL-60(TB)): 30% | GI% K-562 (K-562): 44% | GI% MOLT-4 (MOLT-4): 57% | GI% RPMI-8226 (RPMI-8226): 35% | GI% SR (SR): 52% | GI% A549/ATCC (A549/ATCC): 25% | GI% EKVX (EKVX): 27% | GI% HOP-62 (HOP-62): 12% | GI% HOP-92 (HOP-92): 37% | GI% NCI-H226 (NCI-H226): 25% | GI% NCI-H23 (NCI-H23): 14% | GI% NCI-H322M (NCI-H322M): – (Only GI% ≥ 10 are shown) | GI% NCI-H460 (NCI-H460): 13% | GI% NCI-H522 (NCI-H522): 21% | GI% COLO 205 (COLO 205): – (Only GI% ≥ 10 are shown) | GI% HCC-2998 (HCC-2998): – (Only GI% ≥ 10 are shown) | GI% HCT-116 (HCT-116): 32% | GI% HCT-15 (HCT-15): 31% | GI% HT29 (HT29): 12% | GI% KM12 (KM12): 24% | GI% SW-620 (SW-620): – (Only GI% ≥ 10 are shown) | GI% SF-268 (SF-268): 25% | GI% SF-295 (SF-295): 32% | GI% SF-539 (SF-539): 12% | GI% SNB-19 (SNB-19): – (Only GI% ≥ 10 are shown) | GI% SNB-75 (SNB-75): 32% | GI% U251 (U251): 21% | GI% LOX IMVI (LOX IMVI): 10% | GI% MALME-3M (MALME-3M): – (Only GI% ≥ 10 are shown) | GI% M14 (M14): – (Only GI% ≥ 10 are shown) | GI% MDA-MB-435 (MDA-MB-435): – (Only GI% ≥ 10 are shown) | GI% SK-MEL-2 (SK-MEL-2): 14% | GI% SK-MEL-28 (SK-MEL-28): – (Only GI% ≥ 10 are shown) | GI% SK-MEL-5 (SK-MEL-5): 17% | GI% UACC-257 (UACC-257): 17% | GI% UACC-62 (UACC-62): 23% | GI% IGROV1 (IGROV1): – (Only GI% ≥ 10 are shown) | GI% OVCAR-3 (OVCAR-3): 10% | GI% OVCAR-4 (OVCAR-4): 16% | GI% OVCAR-5 (OVCAR-5): – (Only GI% ≥ 10 are shown) | GI% OVCAR-8 (OVCAR-8): 11% | GI% NCI/ADR-RES (NCI/ADR-RES): 20% | GI% SK-OV-3 (SK-OV-3): – (Only GI% ≥ 10 are shown) | GI% 786-0 (786-0): 18% | GI% A498 (A498): 17% | GI% ACHN (ACHN): 16% | GI% CAKI-1 (CAKI-1): 38% | GI% RXF 393 (RXF 393): 42% | GI% SN12C (SN12C): 10% | GI% TK-10 (TK-10): – (Only GI% ≥ 10 are shown) | GI% UO-31 (UO-31): 20% | GI% PC-3 (PC-3): 57% | GI% DU-145 (DU-145): – (Only GI% ≥ 10 are shown) | GI% MCF7 (MCF7): 39% | GI% MDA-MB-231 (MDA-MB-231): 17% | GI% HS578T (HS578T): 25% | GI% BT-549 (BT-549): – (Only GI% ≥ 10 are shown) | GI% T-47D (T-47D): 54% | GI% MDA-MB-468 (MDA-MB-468): 30% | Mean GI% (NCI 60 cancer cell lines): 19% | melting point: 146 to 148 °C | % activity index, S. aureus (Staphylococcus aureus): – (Values below 25 are of limited value and not shown as they refer either to inactive or non-diffusing compounds) | % activity index, B. subtilis (Bacillus subtilis): – (Values below 25 are of limited value and not shown as they refer either to inactive or non-diffusing compounds) | % activity index, E. coli (Escherichia coli): – (Values below 25 are of limited value and not shown as they refer either to inactive or non-diffusing compounds) | % activity index, P. aeruginosa (Pseudomonas aeruginosa): – (Values below 25 are of limited value and not shown as they refer either to inactive or non-diffusing compounds) | % activity index, C. albicans (Candida albicans): – (Values below 25 are of limited value and not shown as they refer either to inactive or non-diffusing compounds) | % activity index, A. flavus (Aspergillus flavus): – (Values below 25 are of limited value and not shown as they refer either to inactive or non-diffusing compounds)
